Test results reported in patent US9463174B2, “Pharmaceutical composition for the treatment of type-1 diabetes” (priority 2008, dated 2016).
“Also recorded” adds a separate entry of the source.

Experiments:
8.3-TCR NOD mice = assay: Prevention of diabetes in transgenic 8.3-TCR NOD mice; assay type: in vivo
From the text: TCR NOD mice were used to investigate the potential role of GABA on the T-cell function. The 8.3-TCR NOD mouse is a severe T1D mouse model (Amrani A et al, 1999 Clin Invest. 103(8):1201-9) and developed diabetic hyperglycemia at about age of 11 wks (FIG. 8A). Autoimmune diabetes in NOD mice results from destruction of pancreatic b-cells by T lymphocytes. The CD8+ cytotoxic T lymphocytes is thought to be the initial beta-cell insult in diabetes in which the initiation is a Fas-dependent process (Amrani A et al, 1999 Clin Invest. 103(8):1201-9). The 8.3-TCR NOD mouse monoclonal T-cells bearing a T-cell receptor (8.3-TCR) that is representative of TCRs used by CD8+ cytotoxic T lymphocytes propagated from the earliest insulitic lesions of NOD mice.
GAD65 has long been considered as a major antigen initiating the pathogenesis in T1D. Given that the protective effects of GABA in the development of diabetes in the diabetic animal models, I proposed that as the rate limiting enzyme of GABA synthesis, GAD has important role in maintaining islet function. To determine if treatment of GABA has effects on the expression levels of GAD65, we performed pancreatic GAD staining in the TCR transgenic NOD mice.
(§1) The techniques used for the in vivo and in vitro studies in this embodiment of the disclosure are also described. CD1 mice (Charles River Laboratories, St Constant, Canada), NOD mice and transgenic TCR NOD mice (Jackson Laboratory, USA) were housed under a controlled temperature and a 12-h light/12-h dark cycle in the St. Michael's Hospital Animal facility with free access to food (normal rodent chow) and water, except where noted. All procedures were conducted according to protocols and guidelines approved by the Canadian Council of Animal Care and the St. Michael's Hospital Animal Care committee. Mice were treated with GABA by daily intraperitoneal (i.p.) injection of 20·g GABA per mouse to reach ˜200 μM circulation concentration and PBS as control. The daily treatment is continuously conducted during 60-day experimental period. One wk after the GABA and PBS treatment, diabetes was induced in both groups by i.p.-injection of low-dose streptozotocin (STZ, Sigma Chemical Co., St. Louis, Mo. 40 mg/kg body weight) for 5 consecutive days. The development of hyperglycemia was monitored by measuring blood glucose from the tail vein every third day following STZ injections using an Ascensia ELITE® XL glucose meter. For some studies, overtly diabetic mice induced by STZ and without GABA treatment were divided into two groups: one group started receiving daily i.p. injection of 20·g GABA whereas other group received only PBS. The treatment was continued for 75 days. The handling of the NOD mice were similar to those CD1 mice except the STZ injection. The NOD mice have a susceptibility to spontaneous development of autoimmune T1D. The TCR transgenic 8.3-NOD mice have a markedly accelerated disease (J. Vergdaguer et al, 1997 J Exp Med. 186(10):1663-76).
Following dewaxing, […] as described previously (Wang Q, Brubaker P L 2002 Diabetologia 45:1263-1273), endogenous peroxidase activity was quenched by incubating sections in 0.3% H2O2 in water for 30 min and antigen retrieval was performed by heating slides in 10 mM sodium citrate buffer, pH 6.0, at ˜70° C. for 30 min. […]

[1] = tested on: established diabetic MLDS-mice; assay: Reversal of well established diabetes in MLDS-mice by daily GABA injection; assay type: in vivo
Method: To investigate if GABA can reverse diabetes, daily GABA injection was started in well established diabetes in MLDS-mice (blood glucose>30 mM).
as §1
Groups of mice were subject to a glucose tolerance test (IPGTT) before treatment (day 0), one, three, and five weeks after administration and the day prior termination. For IPGTT, mice were fasted overnight for 15 h, and were given 1.5 g glucose/kg body weight via i.p.-injection. Blood was drawn from the tail vein and blood glucose was measured at 0, 10, 20, 30, 60, 90, and 120 min after glucose administration.
Mice were housed in metabolic cages prior to initiation of GABA and PBS treatment and before termination of experiments. Food intake, water consumption and urine output were measured. To determine the fat distribution, three intra-abdominal fat pads retroperitoneal, mesenteric and epididymal were dissected and weighed. Subcutaneous fat was also analyzed.
Blood samples (200 μL) were collected from the saphenous vein at time as indicated and at the termination of experiments via cardiac puncture (1 mL) for measurement of insulin, glucagon, and cytokine profiles. Serum was collected by centrifugation and stored at −80° C. until use. Insulin and glucagon concentration in serum samples were determined using insulin ELISA kit (Crystal Chem., Chicago, Ill., USA) and glucagon RIA kit (Linco Research, St. Louis, Miss., USA). Circulating GLP-1 levels were determined using GLP-1 RIA kit (Linco Research, St. Louis, Miss., USA). Cytokine concentration in the serum samples was determined using kit Multiplex Bead-based Cytokine assay (BioRed, Canada).
Pancreas harvesting and tissue processing were performed as described previously (Wang Q, Brubaker P L 2002 Diabetologia. 45(9):1263-73). Briefly, after cardiac puncture under anesthesia, a midlaparotomy was performed and the pancreas was immediately dissected from surrounding tissues, cleared of fat and lymph nodes, blotted, weighed, and placed in a formaldehyde-acetic acid solution. The procedure from completion of cardiac puncture to placement of tissue in fixative was completed within 5 min. After overnight fixation, the pancreas was washed in cold running water, cut into 10-12 segments. […]

INS-1 cells = assay: Insulin secretion from INS-1 cells; assay type: cell-based; conditions: dose dependent
[2] = day 74 after GABA daily administration

For `NCCCC(=O)O` [GABA, gamma-aminobutyric acid], the alpha-cell mass (8.3-TCR NOD mice; GABA-treated TCR-NOD mice) was “largely reserved”, the “islet mass / beta-cell mass” value (8.3-TCR NOD mice; GABA-treated TCR-NOD mice) was “largely reserved” and the “pancreatic insulin and GAD65/67 staining” value (8.3-TCR NOD mice; TCR transgenic NOD mice) was “largely reserved the islet beta-cell mass and the intact association with GAD65; also recorded: reserves insulin and GAD65/67 content”. The “development of diabetic hyperglycemia” value (8.3-TCR NOD mice; daily GABA vs saline-treated) was “completely prevented the development of diabetic hyperglycemia; also recorded: completely prevents diabetic hyperglycemia”, the “lymphocytes (T-cell) infiltration in pancreatic islets” value (8.3-TCR NOD mice; vs PBS-treated) was “dramatically blocked; also recorded: obviously diminished” and the “glucose tolerance (IPGTT) at 7th days after GABA injections” value ([1]; 7th day) was “significantly improved; also recorded: improved glucose tolerance”. For the same molecule, the “blood glucose / diabetic hyperglycemia, course” value ([1]; daily GABA started at blood glucose>30 mM) was “started to decline only a few days after GABA injection; also recorded: reverses MLDS-induced diabetic hyperglycemia; also recorded: completely reversed diabetic hyperglycemia”, the “blood glucose levels at day 74” value [1, 2] was “closed to the normal range” and the “glucose tolerance at day 74” value [1, 2] was “almost identical to control normal mice; also recorded: improved glucose tolerance”. The “metabolic conditions (metabolic studies)” value ([1]; established diabetic MLDS mice) was “normalized metabolic conditions; also recorded: normalized metabolic status”, the “glucose tolerance at all time points examined” value ([1]; including two weeks and eight weeks after GABA injections) was “steadily improves glucose tolerance” and the islet morphology ([1]; islet histochemistry) was “almost normal islet morphology”. For the same molecule, the “lymphocytes in the islets” value ([1]; islet histochemistry) was “few lymphocytes were seen”, the alpha-cell mass ([1]; vs non-treated MLDS-mice) was “reduced alpha-cell mass” and the beta-cell mass ([1]; vs non-treated MLDS-mice) was “significant enlarged beta-cell mass; also recorded: significantly restored beta-cell mass”. For the same molecule, the circulating glucagon ([1]; vs non-treated MLDS-mice) was “reduced circulating glucagon levels”, the circulating insulin ([1]; vs non-treated MLDS-mice) was “elevated circulating insulin” and the “ratio of insulin to glucagon” value ([1]; vs non-treated MLDS-mice) was “largely increased ratio of insulin to glucagon; also recorded: significantly increased”. The “insulin secretion from INS-1 cells” value (INS-1 cells) was “stimulated insulin secretion; also recorded: dose-dependently increases insulin secretion”.
